Holding throughout (format): biochemical
One experiment concerns the target T1, FXa (Homo sapiens).
T1 construct: 8 μg/mL FXa solution; purchased
In words: AT-dependent Xa inhibitory activity assay. Conditions: in presence of AT; for IC50: read-out: Drug concentration required to inhibit 50% of coagulation factor activity (IC50, ng/mL) Xa (AT). The procedure:
AT-dependent Xa inhibitory activity assay: Heparin […] kit was used for detection. To a 96-well plate, 30 μL of sample, control solution or Tris-HCl buffer (negative control) was added, then 30 μL of 1 IU/mL AT solution was added, mixed well and incubated at 37° C. for 1 min; and than 30 μL of 8 μg/mL FXa solution was added, mixed well and incubated at 37° C. for 1 min, then 30 μL of pre-warmed 1.25 mM Xa chromogenic substrate SXa-11 was added. OD405 was detected by a microplate reader.
(§1) Data processing: The average value of OD405 detected by the duplicated well was used as the detection value of the test sample and the reference of each concentration, and the slope of the linear fit between the detected value to the time value (the change rate of the absorbance value OD405/min) indicated enzymatic activity of coagulation factor. Taking the clotting factor activity of the negative control well as 100%, coagulation factor activity (percentage) in the presence of the test sample was calculated. The coagulation factor activity in the presence of the test sample was plotted against the concentration of the test sample, and fitted according to the following formula, to calculate the IC50 value: B=(IC50)^n/{(IC50)^n+[I]^n}
(§2) in the formula, B is the coagulation factor activity (percentage) in the presence of the test sample, [I] is the concentration of the test sample, IC50 is the half inhibitory concentration (concentration of the test sample required to inhibit 50% of the activity), and n is the Hill coefficient. • (4) Effect on surface activation and platelet activity: […]

For the next experiment, the system named is plasma. Kind of experiment: TT (thrombin time) clotting time.
Another experiment deals with T2, FIIa (Homo sapiens).
T2 construct: antithrombin (i.e., active coagulation factor IIa); purchased
In words: AT-dependent IIa inhibitory activity assay. Conditions: in presence of AT; for IC50: read-out: Drug concentration required to inhibit 50% of coagulation factor activity (IC50, ng/mL) Ha (AT). The procedure:
AT-dependent IIa inhibitory activity assay: Heparin Anti-FIIa kit was used for detection. To a 96-well plate, 30 μL of sample, control solution or Tris-HCl buffer (negative control) was added, and then 30 μL of 1 IU/mL AT solution was added, mixed well by shaking the plate and incubated at 37° C. for 2 min; 30 μL of 24 IU/mL FIIa solution was added, mixed well by shaking the plate and incubated for 2 min at 37° C., and then 30 μL of pre-warmed 1.25 mM FIIa specific chromogenic substrate CS-01 (38) was added, mixed well by shaking the plate. The OD405 was detected by a microplate reader and the IC50 value of FIIa inhibition of each sample was calculated.
as §1, §2

The test system of experiment [1] is human-controlled plasma. Kind of experiment: Anticoagulant activity assay: PT clotting time. On the procedure:
(§3) 8.2 Methods • (1) Preparation of sample solution: Oligosaccharide compounds A1˜A8, B1˜B11 and oligosaccharide mixtures C1, D1, D2 were all dissolved in Tris-HCl buffer and diluted to the desired series of solubility. • (2) Anticoagulant activity assay: 90 μL of human-controlled plasma was added to the sample or 10 μL of the control solution, and then the clotting time (APTT and PT) was detected by the MC-4000 coagulometer according to the method described in the APTT and PT kit instructions. • (3) Coagulation factor inhibitory activity analysis: […]

The next experiment has as its target T3, intrinsic factor Xase (Homo sapiens, UniProt P00740).
T3 construct: 60 nM FIXa; purchased
Kind of experiment: Xase inhibitory activity assay. The following applies: for IC50: read-out: Drug concentration required to inhibit 50% of coagulation factor activity (IC50, ng/mL) Xase (converted). On the procedure:
Xase inhibitory activity assay: Detection was performed according to kit instructions and literature methods by combining the Factor VIII and […]. Specifically, to each well of a 96-well plate, 30 μL of test solution, control solution, or Tris-HCl buffer (negative control) was added, and 30 μl of FVIII (2 IU/ml), 30 μl of R2 (60 nM FIXa, containing FIIa, PC/PS, Ca^2+) were sequentially added, mixed by shaking the plate, incubated at 37° C. for 2 min; and then 30 μL of R1 (50 nM FX, containing direct thrombin inhibitor) was added, mixed by shaking the plate, incubated at 37° C. for 1 min; and then 30 μL of R3 (FXa chromogenic substrate SXa-11, about 8.4 mM) was added. The absorbance at 405 nm (OD405) was detected with a microplate reader, continuously measuring for 7.5 min at a interval of 30 s. The Xase activity and IC50 value of Xase inhibition of the test sample were calculated based on the OD405 change value.
as §1, §2

Experiment [2] concerns human-controlled plasma. Kind of experiment: Anticoagulant activity assay: APTT clotting time. On the procedure: as §3

T2 sequence (P01008 33-464): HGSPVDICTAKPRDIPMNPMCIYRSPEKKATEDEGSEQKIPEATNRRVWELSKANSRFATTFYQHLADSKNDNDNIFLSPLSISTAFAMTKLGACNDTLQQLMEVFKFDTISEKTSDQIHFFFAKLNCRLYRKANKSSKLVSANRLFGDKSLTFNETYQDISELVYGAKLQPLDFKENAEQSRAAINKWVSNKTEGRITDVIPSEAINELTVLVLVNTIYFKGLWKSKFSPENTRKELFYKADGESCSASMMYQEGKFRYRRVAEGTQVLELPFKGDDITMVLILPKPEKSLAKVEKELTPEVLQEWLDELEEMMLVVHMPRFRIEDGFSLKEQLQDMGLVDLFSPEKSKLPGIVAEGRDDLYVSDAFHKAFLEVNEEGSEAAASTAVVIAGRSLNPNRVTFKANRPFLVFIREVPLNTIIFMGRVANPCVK
T1 sequence (P01008 33-464): as above
T3 sequence (P00740 47-191 limits assumed): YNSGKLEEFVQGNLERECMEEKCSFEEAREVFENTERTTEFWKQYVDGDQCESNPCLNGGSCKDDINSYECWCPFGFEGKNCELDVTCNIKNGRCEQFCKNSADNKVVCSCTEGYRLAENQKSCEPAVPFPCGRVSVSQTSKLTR
T3 sequence (P00740 227-461 limits assumed): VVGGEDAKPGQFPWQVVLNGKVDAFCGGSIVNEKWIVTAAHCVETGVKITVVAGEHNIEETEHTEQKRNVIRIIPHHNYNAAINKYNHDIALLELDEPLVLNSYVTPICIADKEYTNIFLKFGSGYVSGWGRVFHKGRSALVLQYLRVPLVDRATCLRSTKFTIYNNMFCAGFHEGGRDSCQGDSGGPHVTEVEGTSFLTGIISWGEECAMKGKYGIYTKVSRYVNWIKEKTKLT

Take `CC1OC(OC2C=C(C(=O)O)OC(OC3C(NS(=O)(=O)O)C(OC4C(C(=O)O)OC(OC5C(NS(=O)(=O)O)C(OC6C(C(=O)O)OC(OC(C(CO)NS(=O)(=O)O)C(OS(=O)(=O)O)C(O)COS(=O)(=O)O)C(O)C6OC6OC(C)C(OS(=O)(=O)O)C(O)C6OS(=O)(=O)O)OC(COS(=O)(=O)O)C5OS(=O)(=O)O)C(O)C4OC4OC(C)C(OS(=O)(=O)O)C(O)C4OS(=O)(=O)O)OC(COS(=O)(=O)O)C3OS(=O)(=O)O)C2O)C(OS(=O)(=O)O)C(O)C1OS(=O)(=O)O` [Compound A7, L-Fuc2S4S-(α1,3)-L-ΔUA-(α1,3)-{D-GalNS4S6S-(β1,4)-[L-Fuc2S4S-(α1,3)-]-D-GlcA-(β1,3)}2-D-Gal-NS4S6S-ol]: the IC50 at FXa (Homo sapiens) was > 1880 nM; at FIIa (Homo sapiens), > 1880 nM; at intrinsic factor Xase, 22.2 nM. In the experiment with plasma, the “Drug concentration required for multiplication of coagulation time (μg/mL) TT” value (shortened to “Drug concentration required … (μg/mL) TT”) is given as “# (>128 μg/mL)”. In the experiment on human-controlled plasma [1], the “Drug concentration required for multiplication of coagulation time (μg/mL) PT” value (from here on “Drug concentration required … (μg/mL) PT”) is “# (>128 μg/mL)”. Further, the “Drug concentration required for multiplication of coagulation time (μg/mL) APTT” value (“Drug concentration required … (μg/mL) APTT” for short) with human-controlled plasma [2] was found to be 6.9 µg/mL.

For `CC(=O)NC1C(OC2C(C(=O)O)OC(OC3C(NC(C)=O)C(OC4C(C(=O)O)OC(OCc5ccccc5)C(O)C4OC4OC(C)C(OS(=O)(=O)O)C(O)C4OS(=O)(=O)O)OC(COS(=O)(=O)O)C3OS(=O)(=O)O)C(O)C2OC2OC(C)C(OS(=O)(=O)O)C(O)C2OS(=O)(=O)O)OC(COS(=O)(=O)O)C(OS(=O)(=O)O)C1OC1OC(C(=O)O)=CC(OC2OC(C)C(OS(=O)(=O)O)C(O)C2OS(=O)(=O)O)C1O` [Compound B9, L-Fuc2S4S-(α1,3)-L-ΔUA-(α1,3)-D-GaNAc4S6S-(D1,4)-[L-Fuc2S4S-(α1,3)]-D-GlcA-(β1,3)-D-GalNAc4S6S-(β1,4)-[L-Fuc2S4S-(α1,3)]-D-1-Benzyl-GlcA-ol], the values for the IC50 on FXa (Homo sapiens), at FIIa (Homo sapiens) and on intrinsic factor Xase were > 2210 nM, > 2210 nM and 26.3 nM, respectively. In addition, the “Drug concentration required … (μg/mL) TT” value in the experiment on plasma is recorded as “# (>128 μg/mL)”. The “Drug concentration required … (μg/mL) PT” value in the experiment on human-controlled plasma [1] was “# (>128 μg/mL)”. Moreover, the “Drug concentration required … (μg/mL) APTT” value with human-controlled plasma [2] worked out at 7.6 µg/mL.

As to “L-Fuc2S4S-(α1,3)-ΔUA-(α1,3)-{D-GaNAc4S6S-(β1,4)-[L-Fuc2S4S-(α1,3)]-D-GlcA-(β1,3)}n+1-D-GalNAc4S6S-ol [Compound A1]”, the “Drug concentration required to inhibit 50% of coagulation factor activity (IC50, ng/mL) Xa (AT)” value at FXa (Homo sapiens) is listed as “## (>5000 ng/mL)”. Also, in the experiment with plasma, the “Drug concentration required … (μg/mL) TT” value is “# (>128 μg/mL)”. Also, the “Drug concentration required to inhibit 50% of coagulation factor activity (IC50, ng/mL) Ha (AT)” value at FIIa (Homo sapiens) is given as “## (>5000 ng/mL)”. The “Drug concentration required … (μg/mL) PT” value in the experiment on human-controlled plasma [1] is listed as “# (>128 μg/mL)”. For the same compound, on intrinsic factor Xase, the “Drug concentration required to inhibit 50% of coagulation factor activity (IC50, ng/mL) Xase” value was “## (>5000 ng/mL)”. In the experiment with human-controlled plasma [2], the “Drug concentration required … (μg/mL) APTT” value was found to be 60.1 µg/mL.

Regarding `CC(=O)NC1C(OC2C(C(=O)O)OC(OC3C(NC(C)=O)C(OC4C(C(=O)O)OC(OC5C(NC(C)=O)C(OC6C(C(=O)O)OC(O)C(O)C6OC6OC(C)C(OS(=O)(=O)O)C(OS(=O)(=O)O)C6O)OC(COS(=O)(=O)O)C5OS(=O)(=O)O)C(O)C4OC4OC(C)C(OS(=O)(=O)O)C(OS(=O)(=O)O)C4O)OC(COS(=O)(=O)O)C3OS(=O)(=O)O)C(O)C2OC2OC(C)C(OS(=O)(=O)O)C(OS(=O)(=O)O)C2O)OC(COS(=O)(=O)O)C(OS(=O)(=O)O)C1OC1OC(C(=O)O)=CC(OC2OC(C)C(OS(=O)(=O)O)C(OS(=O)(=O)O)C2O)C1O` [Compound B8, L-Fuc3S4S-(α1,3)-L-ΔUA-(α1,3)-{D-GaNAc4S6S-(β1,4)-[L-Fuc3S4S-(α1,3)]-D-GlcA-(β1,4)}˜-D-GalNAc4S6S-(β1,4)-[L-Fuc3S4S-(α1,3)]-D-GlcA], the figures for the IC50 on FXa (Homo sapiens), on FIIa (Homo sapiens) and on intrinsic factor Xase were > 1660 nM, > 1660 nM and 9.8 nM, respectively. The “Drug concentration required … (μg/mL) TT” value in the experiment with plasma is recorded as “# (>128 μg/mL)”. Besides, in the experiment on human-controlled plasma [1], the “Drug concentration required … (μg/mL) PT” value was “# (>128 μg/mL)”. Further, in the experiment with human-controlled plasma [2], the “Drug concentration required … (μg/mL) APTT” value came out at 5.8 µg/mL.

On to `CCOC(=O)c1ccc(NCC(O)C(OC2OC(C)C(OS(=O)(=O)O)C(O)C2OS(=O)(=O)O)C(OC2OC(COS(=O)(=O)O)C(OS(=O)(=O)O)C(OC3OC(C(=O)O)C(OC4OC(COS(=O)(=O)O)C(OS(=O)(=O)O)C(OC5OC(C(=O)O)C(OC6OC(COS(=O)(=O)O)C(OS(=O)(=O)O)C(OC7OC(C(=O)O)=CC(OC8OC(C)C(OS(=O)(=O)O)C(O)C8OS(=O)(=O)O)C7O)C6NC(C)=O)C(OC6OC(C)C(OS(=O)(=O)O)C(O)C6OS(=O)(=O)O)C5O)C4NC(C)=O)C(OC4OC(C)C(OS(=O)(=O)O)C(O)C4OS(=O)(=O)O)C3O)C2NC(C)=O)C(O)C(=O)O)cc1` [Compound B11, L-Fuc2S4S-(α1,3)-L-ΔUA-(α1,3)-{D-GalNAc4S6S-(β1,4)-[L-Fuc2S4S-(α1,3)]-D-GlcA-(β1,3)}2-D-GalNAc4S6S-(β1,4)-[L-Fuc2S4S-(α1,3)]-D-1-deoxy-1-amino-GlcA-ol-N-4-benzoic ethyl ester], for which the IC50 is > 1580 nM at FXa (Homo sapiens), > 1580 nM at FIIa (Homo sapiens) and 9.56 nM on intrinsic factor Xase. For the same compound, in the experiment on plasma, the “Drug concentration required … (μg/mL) TT” value is given as “# (>128 μg/mL)”. Further, the “Drug concentration required … (μg/mL) PT” value in the experiment with human-controlled plasma [1] is “# (>128 μg/mL)”. Besides, the “Drug concentration required … (μg/mL) APTT” value in the experiment with human-controlled plasma [2] turned out to be 6.3 µg/mL.

Turning to `CC(=O)NC1C(OC2C(C(=O)O)OC(OC3C(NC(C)=O)C(OC(C(O)C(=O)O)C(OC4OC(C)C(OS(=O)(=O)O)C(OS(=O)(=O)O)C4O)C(O)CO)OC(COS(=O)(=O)O)C3OS(=O)(=O)O)C(O)C2OC2OC(C)C(OS(=O)(=O)O)C(OS(=O)(=O)O)C2O)OC(COS(=O)(=O)O)C(OS(=O)(=O)O)C1OC1OC(C(=O)O)=CC(OC2OC(C)C(OS(=O)(=O)O)C(OS(=O)(=O)O)C2O)C1O` [Compound B2, L-Fuc3S4S-(α1,3)-L-ΔUA-(α1,3)-{D-GalNAc4S6S-(β1,4)-[L-Fuc3S4S-(α1,3)]-D-GlcA-(β1,3)}˜-D-GalNAc4S6S-(β1,4)-[L-Fuc3S4S-(α1,3)]-D-GlcA-ol], the IC50 at FXa (Homo sapiens) is > 2300 nM; at FIIa (Homo sapiens), > 2300 nM; at intrinsic factor Xase it was 29.5 nM. In addition, in the experiment on plasma, the “Drug concentration required … (μg/mL) TT” value is recorded as “# (>128 μg/mL)”. In addition, the “Drug concentration required … (μg/mL) PT” value in the experiment on human-controlled plasma [1] was “# (>128 μg/mL)”. Also, the “Drug concentration required … (μg/mL) APTT” value in the experiment with human-controlled plasma [2] turned out to be 7.5 µg/mL.
